Article PMC8901636, “Preclinical studies of Flonoltinib Maleate, a novel JAK2/FLT3 inhibitor, in treatment of JAK2^V617F-induced myeloproliferative neoplasms” (Blood Cancer Journal, 2022)
Read-outs that look alike come from different tables or passages of the source.

Experiments:
[1] = PK and tissue distribution after repeated oral administration in Ba/F3-EPOR-JAK2^V617F tumor-bearing mice; type: in vivo; conditions: for Kp: spleen and plasma, po
JAK1/JAK2 = assay: Cytokine-stimulated cell-based assay, IFN-γ-induced p-STAT1 in U2OS cells; conditions: Homo sapiens
JAK1 = JAK1 (Homo sapiens, UniProt P23458); assay: In vitro kinase assay; conditions: read-out: JAK1 Enzyme IC50
Chain of JAK1 (P23458 whole entry): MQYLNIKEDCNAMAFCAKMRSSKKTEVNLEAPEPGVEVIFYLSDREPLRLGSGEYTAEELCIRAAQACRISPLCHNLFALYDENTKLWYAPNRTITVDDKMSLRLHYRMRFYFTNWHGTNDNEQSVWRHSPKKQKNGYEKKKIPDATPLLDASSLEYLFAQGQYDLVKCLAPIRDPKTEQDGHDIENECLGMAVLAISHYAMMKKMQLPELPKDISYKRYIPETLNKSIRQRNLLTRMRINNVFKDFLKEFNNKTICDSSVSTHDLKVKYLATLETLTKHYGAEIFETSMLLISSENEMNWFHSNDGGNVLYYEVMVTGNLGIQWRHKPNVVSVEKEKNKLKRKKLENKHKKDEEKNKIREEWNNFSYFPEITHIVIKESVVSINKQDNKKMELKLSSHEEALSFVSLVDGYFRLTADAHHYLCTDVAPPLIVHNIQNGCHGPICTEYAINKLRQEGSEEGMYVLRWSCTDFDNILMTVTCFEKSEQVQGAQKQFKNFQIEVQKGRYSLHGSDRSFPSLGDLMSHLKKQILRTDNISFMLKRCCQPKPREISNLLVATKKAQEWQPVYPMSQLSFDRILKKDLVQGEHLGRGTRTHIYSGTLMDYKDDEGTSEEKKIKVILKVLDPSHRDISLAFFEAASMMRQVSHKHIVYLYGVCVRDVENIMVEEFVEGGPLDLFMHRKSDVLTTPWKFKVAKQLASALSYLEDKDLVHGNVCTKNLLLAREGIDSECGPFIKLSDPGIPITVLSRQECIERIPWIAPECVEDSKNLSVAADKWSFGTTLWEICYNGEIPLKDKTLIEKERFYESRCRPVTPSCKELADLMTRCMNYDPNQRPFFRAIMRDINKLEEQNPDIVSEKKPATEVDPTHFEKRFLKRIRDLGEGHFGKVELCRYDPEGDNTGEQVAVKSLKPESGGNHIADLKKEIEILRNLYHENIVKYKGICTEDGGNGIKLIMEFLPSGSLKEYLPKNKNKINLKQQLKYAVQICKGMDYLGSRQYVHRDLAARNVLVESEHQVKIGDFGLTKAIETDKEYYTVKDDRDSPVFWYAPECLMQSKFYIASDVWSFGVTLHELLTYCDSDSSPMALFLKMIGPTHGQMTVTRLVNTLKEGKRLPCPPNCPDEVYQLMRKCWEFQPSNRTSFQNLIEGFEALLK

[2] = BALB/c nude, mouse, liver, oral, 30 mg/kg, repeated, read-out: FM concentration, Liver
[3] = BALB/c nude, mouse, lung, oral, 30 mg/kg, repeated, read-out: FM concentration, Lung
[4] = BALB/c nude, mouse, muscle, oral, 30 mg/kg, repeated, read-out: FM concentration, Muscle
[5] = BALB/c nude, mouse, plasma, oral, 30 mg/kg, repeated, read-out: FM concentration, Plasma
[6] = BALB/c nude, mouse, spleen, oral, 30 mg/kg, repeated, read-out: FM concentration, Spleen
[7] = BALB/c nude, mouse, stomach, oral, 30 mg/kg, repeated, read-out: FM concentration, Stomach
[8] = BALB/c nude, mouse, Plasma, repeated oral 30 mg/kg
[9] = BALB/c nude, mouse, Spleen, repeated oral 30 mg/kg

SMILES: Cc1cnc(Nc2ccc(N3CCC(N(C)CCO)CC3)c(F)c2)nc1-c1cnn(C(C)C)c1 [FM, 2-((1-(2-fluoro-4-((4-(1-isopropyl-1H-pyrazol-4-yl)-5-methylpyrimidin-2-yl)amino)phenyl)piperidin-4-yl)(methyl)amino)ethan-1-ol]
- concentration at 12 h ([1]; BALB/c nude, mouse, kidney, oral, 30 mg/kg, repeated, 12 h, read-out: FM concentration, Kidney): 174 ± 121 ng/g
- concentration at 0 h [1, 2]: 12.9 ± 3.13 ng/g
- concentration at 0.5 h [1, 2]: 4360 ± 3900 ng/g
- concentration at 2 h [1, 2]: 6420 ± 1260 ng/g
- concentration at 4 h [1, 2]: 6660 ± 5810 ng/g
- concentration at 8 h ([1]; BALB/c nude, mouse, liver, oral, 30 mg/kg, repeated, 8 h, read-out: FM concentration, Liver): 1900 ± 1330 ng/g
- concentration at 12 h ([1]; BALB/c nude, mouse, liver, oral, 30 mg/kg, repeated, 12 h, read-out: FM concentration, Liver): 151 ± 116 ng/g
- concentration at 0 h [1, 3]: 18.5 ± 4 ng/g
- concentration at 0.5 h [1, 3]: 11400 ± 1780 ng/g
- concentration at 2 h [1, 3]: 7150 ± 1880 ng/g
- concentration at 4 h [1, 3]: 3890 ± 1470 ng/g
- concentration at 8 h ([1]; BALB/c nude, mouse, lung, oral, 30 mg/kg, repeated, 8 h, read-out: FM concentration, Lung): 1450 ± 1430 ng/g
- concentration at 12 h ([1]; BALB/c nude, mouse, lung, oral, 30 mg/kg, repeated, 12 h, read-out: FM concentration, Lung): 132 ± 76.7 ng/g
- concentration at 0 h [1, 4]: 18.6 ± 11.7 ng/g
- concentration at 0.5 h [1, 4]: 415 ± 435 ng/g
- concentration at 2 h [1, 4]: 275 ± 158 ng/g
- concentration at 4 h [1, 4]: 181 ± 120 ng/g
- concentration at 8 h ([1]; BALB/c nude, mouse, muscle, oral, 30 mg/kg, repeated, 8 h, read-out: FM concentration, Muscle): 85 ± 73.1 ng/g
- concentration at 12 h ([1]; BALB/c nude, mouse, muscle, oral, 30 mg/kg, repeated, 12 h, read-out: FM concentration, Muscle): 13.3 ± 6.38 ng/g
- concentration at 0 h [1, 5]: 5.6 ± 1.53 ng/mL
- concentration at 0.25 h [1, 5]: 628 ± 144 ng/mL
- concentration at 0.5 h [1, 5]: 889 ± 238 ng/mL
- concentration at 1 h [1, 5]: 1040 ± 375 ng/mL
- concentration at 2 h [1, 5]: 638 ± 168 ng/mL
- concentration at 4 h [1, 5]: 292 ± 101 ng/mL
- concentration at 8 h ([1]; BALB/c nude, mouse, plasma, oral, 30 mg/kg, repeated, 8 h, read-out: FM concentration, Plasma): 106 ± 84.1 ng/mL
- concentration at 12 h ([1]; BALB/c nude, mouse, plasma, oral, 30 mg/kg, repeated, 12 h, read-out: FM concentration, Plasma): 19.3 ± 12.9 ng/mL
- concentration at 24 h ([1]; BALB/c nude, mouse, plasma, oral, 30 mg/kg, repeated, 24 h, read-out: FM concentration, Plasma): 5.56 ± 4.97 ng/mL
- Kp ([1]; BALB/c nude, mouse, 30 mg/kg, AUC(0–24h) of spleen higher than that of plasma, repeated oral 30 mg/kg): 17.9
- Kp ([1]; BALB/c nude, mouse, 30 mg/kg, repeated oral 30 mg/kg, read-out: Cmax of spleen higher than that of plasma): 14.1
- concentration at 0 h [1, 6]: 69 ± 44.8 ng/g
- concentration at 0.25 h [1, 6]: 3700 ± 1440 ng/g
- concentration at 0.5 h [1, 6]: 12100 ± 1910 ng/g
- concentration at 1 h [1, 6]: 17100 ± 6420 ng/g
- concentration at 2 h [1, 6]: 12200 ± 4390 ng/g
- concentration at 4 h [1, 6]: 6180 ± 1680 ng/g
- concentration at 8 h ([1]; BALB/c nude, mouse, spleen, oral, 30 mg/kg, repeated, 8 h after the last administration, read-out: FM concentration, Spleen): 2150 ± 1390 ng/g
- concentration at 12 h ([1]; BALB/c nude, mouse, spleen, oral, 30 mg/kg, repeated, 12 h after the last administration, read-out: FM concentration, Spleen): 391 ± 181 ng/g
- concentration at 0 h [1, 7]: 71.8 ± 44.3 ng/g
- concentration at 0.5 h [1, 7]: 33100 ± 22700 ng/g
- concentration at 2 h [1, 7]: 19300 ± 20700 ng/g
- concentration at 4 h [1, 7]: 11700 ± 8600 ng/g
- concentration at 8 h ([1]; BALB/c nude, mouse, stomach, oral, 30 mg/kg, repeated, 8 h, read-out: FM concentration, Stomach): 3500 ± 5190 ng/g
- concentration at 12 h ([1]; BALB/c nude, mouse, stomach, oral, 30 mg/kg, repeated, 12 h, read-out: FM concentration, Stomach): 2490 ± 2530 ng/g
- Cmax [1, 8]: 1280 ± 455 ng/mL
- half-life [1, 8]: 2.85 ± 1.14 h
- AUC(0-t) ([1]; BALB/c nude, mouse, Plasma, repeated oral 30 mg/kg, read-out: AUC0–24 h): 3740 ± 704 ng·h/mL
- Cmax [1, 9]: 18100 ± 5680 ng/g
- half-life [1, 9]: 2.37 ± 0.58 h
- Cl ([1]; Plasma, repeated oral 30 mg/kg): 137 ± 31.8 mL/min/kg
- Vdss ([1]; Plasma, repeated oral 30 mg/kg): 32.81 ± 11.21 L/kg
- AUC0–24 h ([1]; Spleen, repeated oral 30 mg/kg): 67200.44 ± 11858.88 ng^.h/mL
- IC50 (JAK1/JAK2): 390 nM
- IC50 (JAK1): 690 nM
